Measurements taken from US7217735B1, “Methods and compositions for enhancing delivery of therapeutic agents to tissues” (priority 1999, dated 2007).

Key:
[1] = system: microtubule; details: cited from earlier work
[2] = system: patient prostate tumors; test: Doxorubicin accumulation and penetration in tumor histocultures (fluorescence microscopy); assay type: in vitro ADME, human; details: for Tissue concentration at 72 hr: in µM; for distribution of fluorescence signal: 5 or 20 μM
Protocol: (§1) In this example, the penetration of doxorubicin into multilayer tissue was monitored using prostate tumor specimens obtained from human cancer patients and using the human prostate PC3 xenograft tumor maintained in athymic mice. Doxorubicin was monitored by fluorescence.
(§2) Histocultures of tumors were incubated with 1, 5 or 20:M doxorubicin as described in Example 1. […] At 4, 12, 24, 36, 48, and 72 hours, histocultures were collected and processed as described in Example 1. The fluorescence emitted by doxorubicin was visualized using fluorescence microscopy. The excitation and emission wavelengths were 546 nm and 565 nm, respectively. Microscopic images were captured using a Charged Couple Device (CCD) camera and the captured images were analyzed using Optimas image analysis software (Silver spring, MD). The doxorubicin concentration in tissues was quantified using standard curves (each curve contained six data points), established as follows. Samples for the standard curves were prepared by applying known amounts of doxorubicin in solution to microscope sections of blank dog prostate tissue. The standard doxorubicin solutions (2:1) were pipetted on 10:m-thick blank tissue sections, and carefully spread over a surface area of approximately 1.5–2 cm^2. The standard slides were scanned using the same conditions as the samples. The average fluorescence intensity per area were measured. Plots of the fluorescence readings against the applied doxorubicin concentrations in the standard curve samples provided the standard curves used to quantify the doxorubicin in the actual samples. For the latter, at least three sections were used to obtain the mean value in one tumor, and at least three tumors were used to obtain the mean value at each time point.
(§3) The rate of doxorubicin penetration into patient and PC3 xenograft tumors was monitored using fluorescence microscopy.

[3] = system: PC3 xenograft tumor; test: Tumor cell density after doxorubicin treatment; assay type: cell-based, human; details: 5 or 20 μM
Protocol: The fractions of stromal tissue and tumor cells in each histoculture were measured using image analysis. Briefly, stromal and tumor cells of a 100× magnification field were outlined with the computer mouse. The sizes of each of these regions were determined via image analysis by counting the number of pixels in the region. […] Apoptotic cells were determined based on morphological changes in tumor cells such as chromatin condensation and margination, disappearance of nucleoli, formation of membrane blebs, apoptotic bodies and/or cell shrinkage (Kerr J F R et al. (1994) Cancer 73:2013). […] For each tumor piece, 50 to 100 images were processed, and the fractions of the tumor represented by tumor cells, stromal tissue, and interstitial space were calculated.

[4] = system: PC3 xenograft tumor; test: Doxorubicin accumulation and penetration in tumor histocultures (fluorescence microscopy); assay type: in vitro ADME, human; details: for Tissue-to-medium concentration ratio at 72 hr / Tissue concentration at 72 hr: PC3 xenograft tumor; for Tissue concentration at 72 hr: in µM; for distribution of fluorescence signal: 5 or 20 μM
Protocol: The androgen-independent human prostate PC3 cells were maintained as xenograft tumors in male nude mice according to the previously published procedures (Pretlow et al., 1993; Nagabhushan et al., 1996). Briefly, minced tumor tissue mixed with the same volume of Matrigel was implanted into both flanks of the nude mice at 0.3 ml per site. Tumors were harvested when they reached a size of 1 g at about 1.5 to 2 months after implantation.
as §1, §2, §3

[5] = system: human prostate tumor histocultures; details: cited from earlier work
[6] = system: patient prostate tumors and PC3 xenograft tumors; test: Doxorubicin concentration versus distance from tumor periphery (FIG. 4); assay type: in vitro ADME, human
Protocol: as §2, with “The standard doxorubicin solutions (2:1) were pipetted on 10:m-thick blank tissue sections, and carefully spread over a surface area of approximately 1.5–2 cm^2. The standard slides were scanned using the same conditions as the samples.” left out, “For the latter, at least three sections were used to obtain the mean value in one tumor, and at least three tumors were used to obtain the mean value at each time point.” left out
FIG. 4 summarizes the drug concentration in tumor tissue, expressed as tissue-to-medium concentration ratio, as a function of the distance from the periphery of the tumor histocultures. […]

CC(=O)O[C@H]1C(=O)[C@@]2(C)[C@H]([C@H](OC(=O)c3ccccc3)[C@]3(O)C[C@H](OC(=O)[C@H](O)[C@@H](NC(=O)c4ccccc4)c4ccccc4)C(C)=C1C3(C)C)[C@]1(OC(C)=O)CO[C@@H]1C[C@@H]2O [7-epitaxol]
microtubule binding affinity compared with paclitaxel [1]: similar

COc1cccc2c1C(=O)c1c(O)c3c(c(O)c1C2=O)C[C@@](O)(C(=O)CO)C[C@@H]3O[C@H]1C[C@H](N)[C@H](O)[C@H](C)O1 [doxorubicin]
Tissue-to-medium concentration ratio at 72 hr ([2]; 1 μM in culture medium): 29.2 ± 7.8 | Tissue concentration at 72 hr ([2]; 1 μM in culture medium): 29.2 ± 7.8 | drug distribution ([2]; 1 μM, by 72 hr): distributed evenly throughout the patient tumors | Tissue-to-medium concentration ratio at 72 hr ([2]; 5 μM in culture medium): 31.6 ± 14.2 | Tissue concentration at 72 hr ([2]; 5 μM in culture medium): 158 ± 70.9 | Tissue-to-medium concentration ratio at 72 hr ([2]; 20 μM in culture medium): 36.9 ± 26.5 | Tissue concentration at 72 hr ([2]; 20 μM in culture medium): 739 ± 531 | distribution of fluorescence signal ([2]; after 24 hr): evenly distributed throughout the histoculture | distribution of fluorescence signal ([2]; first 12 hr): confined to the periphery | cell density in the periphery of the tumor [3]: decreased with time | PC3 xenograft-to-patient tumor concentration ratio at 72 hr ([4]; 1 μM in culture medium): 1.15 | PC3 xenograft-to-patient tumor concentration ratio at 72 hr ([4]; 5 μM in culture medium): 1.35 | PC3 xenograft-to-patient tumor concentration ratio at 72 hr ([4]; 20 μM in culture medium): 1.5 | Tissue-to-medium concentration ratio at 72 hr ([4]; 1 μM in culture medium): 33.6 ± 3.9 | Tissue concentration at 72 hr ([4]; 1 μM in culture medium): 33.6 ± 3.9 | Tissue-to-medium concentration ratio at 72 hr ([4]; 5 μM in culture medium): 42.7 ± 3.3 | Tissue concentration at 72 hr ([4]; 5 μM in culture medium): 213 ± 16.4 | Tissue-to-medium concentration ratio at 72 hr ([4]; 20 μM in culture medium): 55.3 ± 9.6 | Tissue concentration at 72 hr ([4]; 20 μM in culture medium): 1107 ± 193 | drug distribution ([4]; xenograft tumor, 1 μM, at 72 hr): remained confined to the periphery | distribution of fluorescence signal ([4]; xenograft tumor, after 36 hr): evenly distributed | distribution of fluorescence signal ([4]; xenograft tumor, first 24 hr): confined to the periphery | IC50 ([5]; human prostate tumor histocultures, read-out: IC50, inhibition of tumor cell growth): 0.061 µM | CC50 ([5]; human prostate tumor histocultures, read-out: LC50, tumor cell death): 2.1 µM | concentration sufficient to produce 50% cell death ([5]; patient prostate tumors): 2.1 :M | concentration sufficient to produce 90% cell death ([5]; patient prostate tumors): 4.2 :M | concentration sufficient to produce 90% inhibition of tumor cell proliferation ([5]; patient prostate tumors): 0.4 :M | equilibrium between far end (325 μm) and periphery (75 μm) concentration ([6]; 1 μM): did not reach equilibrium | time at which equilibrium between far end and periphery was attained ([6]; 5 and 20 μM): 36 h
